Results on 43 compounds are retold here after patent US20030186997A1, “2,5-Dihydro-pyrazolo[3,4-d]pyrimidin-4-ones with an anticonsulsive action and methods for producing the same” (priority 2000, published 2003).

Regarding `O=c1c2c[nH]nc2ncn1Cc1ccccn1` [Compound 10, 5-(2-pyridinylmethyl)-2,5-dihydropyrazolo[3,4-d]-pyrimidin-4-one], the melting point lay within 224 to 225 °C.

As for `Cc1ccc(Cn2cnc3nn(Cc4ccccc4)cc3c2=O)cc1` [Compound 55, 5-(4-methylbenzyl)-2-benzyl-2,5-dihydropyrazolo[3,4-d]-pyrimidin-4-one], the melting point lay within 167 to 169 °C.

As to `Cn1cc2c(=O)n(Cc3ccccc3C(F)(F)F)cnc2n1` [Compound 20, 5-(2-trifluoromethylbenzyl)-2-methyl-2,5-dihydropyrazolo[3,4-d]pyrimidin-4-one], the melting point lay in the range of 215 to 217 °C.

The compound `Cn1cc2c(=O)n(Cc3ccccc3-c3ccccc3)cnc2n1` [Compound 24, 5-(2-phenylbenzyl)-2-methyl-2,5-dihydropyrazolo[3,4-d]-pyrimidin-4-one] had a melting point of 189 to 191 °C.

With `CCCn1cc2c(=O)n(Cc3c(F)cccc3F)cnc2n1` [Compound 41, 5-(2,6-difluorobenzyl)-2-propyl-2,5-dihydropyrazolo[3,4-d]pyrimidin-4-one], the melting point lay within 167 to 168 °C.

As to `COc1ccccc1Cn1cnc2n[nH]cc2c1=O` [Compound 7, 5-(2-methoxybenzyl)-2,5-dihydropyrazolo[3,4-d]-pyrimidin-4-one], the melting point was in the range of 188 to 189 °C.

`Cn1cc2c(=O)n(Cc3ccccc3[N+](=O)[O-])cnc2n1` [Compound 26, 5-(2-nitrobenzyl)-2-methyl-2,5-dihydropyrazolo[3,4-d]-pyrimidin-4-one] showed a melting point of 220 to 222 °C.

As for `CCn1cc2c(=O)n(Cc3ccccn3)cnc2n1` [Compound 38, 5-(2-pyridinylmethyl)-2-ethyl-2,5-dihydropyrazolo[3,4-d]-pyrimidin-4-one], the melting point is 190 to 191 °C.

As to `O=c1c2cn(-c3ccccc3)nc2ncn1Cc1c(F)cccc1Cl` [Compound 50, 5-(2-chloro-6-fluorobenzyl)-2-phenyl-2,5-dihydropyrazolo[3,4-d]pyrimidin-4-one], the melting point fell in the range of 195 to 197 °C.

`Cn1cc2c(=O)n(Cc3ccccc3Cl)cnc2n1` [Compound 18, 5-(2-chlorobenzyl)-2-methyl-2,5-dihydropyrazolo[3,4-d]-pyrimidin-4-one]: the melting point lay in the range of 205 to 206 °C.

In the case of `CCCCn1cc2c(=O)n(Cc3c(F)cccc3Cl)cnc2n1` [Compound 47, 5-(2-chloro-6-fluorobenzyl)-2-butyl-2,5-dihydropyrazolo[3,4-d]pyrimidin-4-one], the melting point was 156 to 157 °C.

Turning to `Cc1cccc(Cn2cnc3nn(C)cc3c2=O)c1` [Compound 15, 5-(3-methylbenzyl)-2-methyl-2,5-dihydropyrazolo[3,4-d]-pyrimidin-4-one], the melting point was 114 to 117 °C.

In the case of `O=c1c2cn(-c3ccccc3)nc2ncn1Cc1ccccn1` [Compound 53, 5-(2-pyridinylmethyl)-2-phenyl-2,5-dihydropyrazolo[3,4-d]-pyrimidin-4-one], the melting point lay in the range of 199 to 201 °C.

Regarding `O=c1c2cn(-c3ccccc3)nc2ncn1Cc1c(F)cccc1F` [Compound 52, 5-(2,6-difluorobenzyl)-2-phenyl-2,5-dihydropyrazolo[3,4-d]pyrimidin-4-one], the melting point was in the range of 189 to 191 °C.

`CCCn1cc2c(=O)n(Cc3ccc(C)cc3)cnc2n1` [Compound 40, 5-(4-methylbenzyl)-2-propyl-2,5-dihydropyrazolo[3,4-d]-pyrimidin-4-one] registered a melting point of 157 to 158 °C.

In the case of `Cc1nc2nn(C)cc2c(=O)n1Cc1c(F)cccc1F` [Compound 64, 5-(2,6-difluorobenzyl)-2,6-dimethyl-2,5-dihydropyrazolo[3,4-d]pyrimidin-4-one], the melting point lay in the range of 201 to 202 °C.

Compound `Cn1cc2c(=O)n(Cc3c(Cl)cccc3Cl)cnc2n1` [Compound 25, 5-(2,6-dichlorobenzyl)-2-methyl-2,5-dihydro-pyrazolo[3,4-d]pyrimidin-4-one] came in with a melting point of 200 to 202 °C.

Compound `O=c1c2c[nH]nc2ncn1Cc1cccnc1` [Compound 11, 5-(3-pyridinylmethyl)-2,5-dihydropyrazolo[3,4-d]-pyrimidin-4-one] displayed a melting point of 200 to 201 °C.

As to `Cc1cc(C)c(Cn2cnc3n[nH]cc3c2=O)c(C)c1` [Compound 9, 5-(2,4,6-trimethylbenzyl)-2,5-dihydropyrazolo[3,4-d]-pyrimidin-4-one], the melting point was in the range of 199 to 200 °C.

For the compound `CCCn1cc2c(=O)n(Cc3ccccn3)cnc2n1` [Compound 42, 5-(2-pyridinylmethyl)-2-propyl-2,5-dihydropyrazolo[3,4-d]-pyrimidin-4-one], the melting point lay in the range of 179 to 181 °C.

In the case of `O=c1c2cn(Cc3ccccn3)nc2ncn1Cc1c(F)cccc1F` [Compound 59, 5-(2,6-difluorobenzyl)-2-pyridin-2-ylmethyl-2,5-dihydropyrazolo[3,4-d]pyrimidin-4-one], the melting point is 174 to 175 °C.

The compound `Cn1cc2c(=O)n(Cc3c(F)cccc3Cl)cnc2n1` [Compound 23, 5-(2-chloro-6-fluorobenzyl)-2-methyl-2,5-dihydropyrazolo[3,4-d]pyrimidin-4-one] gave a melting point of 216 to 218 °C.

The compound `CCCCn1cc2c(=O)n(Cc3ccc(C)cc3)cnc2n1` [Compound 48, 5-(4-methylbenzyl)-2-butyl-2,5-dihydropyrazolo[3,4-d]-pyrimidin-4-one] gave a melting point of 146 to 147 °C.

The compound `O=c1c2cn(Cc3ccccc3)nc2ncn1Cc1c(F)cccc1F` [Compound 56, 5-(2,6-difluorobenzyl)-2-benzyl-2,5-dihydropyrazolo[3,4-d]pyrimidin-4-one] had a melting point of 173 to 174 °C.

Compound `CC(C)n1cc2c(=O)n(Cc3c(F)cccc3F)cnc2n1` [Compound 45, 5-(2,6-difluorobenzyl)-2-isopropyl-2,5-dihydropyrazolo[3,4-d]pyrimidin-4-one] registered a melting point of 156 to 157 °C.

With `Cn1cc2c(=O)n(Cc3ccc(Cl)cc3)cnc2n1` [Compound 27, 5-(4-chlorobenzyl)-2-methyl-2,5-dihydropyrazolo[3,4-d]-pyrimidin-4-one], the melting point lay in the range of 209 to 210 °C.

As for `O=c1c2c[nH]nc2ncn1Cc1ccncc1` [Compound 12, 5-(4-pyridinylmethyl)-2,5-dihydropyrazolo[3,4-d]-pyrimidin-4-one], the melting point lay within 220 to 221 °C.

`Cc1ccc(Cn2cnc3nn(C(C)C)cc3c2=O)cc1` [Compound 44, 5-(4-methylbenzyl)-2-isopropyl-2,5-dihydropyrazolo[3,4-d]-pyrimidin-4-one] came in with a melting point of 145 to 147 °C.

The compound `Cn1cc2c(=O)n(Cc3ccncc3)cnc2n1` [Compound 34, 5-(4-pyridinylmethyl)-2-methyl-2,5-dihydropyrazolo[3,4-d]-pyrimidin-4-one] yielded a melting point of 192 to 195 °C.

As for `Cn1cc2c(=O)n(Cc3ccccn3)cnc2n1` [Compound 33, 5-(2-pyridinylmethyl)-2-methyl-2,5-dihydropyrazolo[3,4-d]-pyrimidin-4-one], the melting point is 203 to 205 °C.

In turn, `CC(C)n1cc2c(=O)n(Cc3ccccn3)cnc2n1` [Compound 46, 5-(2-pyridinylmethyl)-2-isopropyl-2,5-dihydropyrazolo[3,4-d]pyrimidin-4-one] gave a melting point of 163 to 164 °C.

For `Cn1cc2c(=O)n(Cc3ccc(F)cc3)cnc2n1` [Compound 31, 5-(4-fluorobenzyl)-2-methyl-2,5-dihydropyrazolo[3,4-d]-pyrimidin-4-one], the melting point lay within 216 to 217 °C.

Consider `CCn1cc2c(=O)n(Cc3ccc(C)cc3)cnc2n1` [Compound 36, 5-(4-methylbenzyl)-2-ethyl-2,5-dihydropyrazolo[3,4-d]-pyrimidin-4-one], for which the melting point lay in the range of 178 to 179 °C.

With `CCCCn1cc2c(=O)n(Cc3c(F)cccc3F)cnc2n1` [Compound 49, 5-(2,6-difluorobenzyl)-2-butyl-2,5-dihydropyrazolo[3,4-d]-pyrimidin-4-one], the melting point is 151 to 152 °C.

`Cn1cc2c(=O)n(Cc3ccc(C(F)(F)F)cc3)cnc2n1` [Compound 22, 5-(4-trifluoromethylbenzyl)-2-methyl-2,5-dihydropyrazolo[3,4-d]pyrimidin-4-one] returned a melting point of 211 to 212 °C.

Compound `O=c1c2cn(Cc3ccccc3)nc2ncn1Cc1ccccn1` [Compound 57, 5-(2-pyridinylmethyl)-2-benzyl-2,5-dihydropyrazolo[3,4-d]-pyrimidin-4-one] showed a melting point of 182 to 184 °C.

As to `Cc1ccc(Cn2cnc3nn(-c4ccccc4)cc3c2=O)cc1` [Compound 51, 5-(4-methylbenzyl)-2-phenyl-2,5-dihydropyrazolo[3,4-d]-pyrimidin-4-one], the melting point is 182 to 183 °C.

In turn, `Cc1ccc(Cn2cnc3nn(C)cc3c2=O)cc1` [Compound 16, 5-(4-methylbenzyl)-2-methyl-2,5-dihydropyrazolo[3,4-d]-pyrimidin-4-one] yielded a melting point of 224 to 226 °C.

Turning to `Cn1cc2c(=O)n(Cc3ccc(Cl)cc3Cl)cnc2n1` [Compound 28, 5-(2,4-dichlorobenzyl)-2-methyl-2,5-dihydropyrazolo[3,4-d]pyrimidin-4-one], the melting point lay in the range of 218 to 219 °C.

The compound `Cn1cc2c(=O)n(Cc3ccccc3I)cnc2n1` [Compound 29, 5-(2-iodobenzyl)-2-methyl-2,5-dihydropyrazolo[3,4-d]-pyrimidin-4-one] yielded a melting point of 187 to 190 °C.

Regarding `Cc1nc2n[nH]cc2c(=O)n1Cc1ccccc1Cl` [Compound 61, 5-(2-chlorobenzyl)-6-methyl-2,5-dihydropyrazolo[3,4-d]-pyrimidin-4-one], the melting point lay in the range of 222 to 224 °C.

As to `CCCn1cc2c(=O)n(Cc3c(F)cccc3Cl)cnc2n1` [Compound 39, 5-(2-chloro-6-fluorobenzyl)-2-propyl-2,5-dihydropyrazolo[3,4-d]pyrimidin-4-one], the melting point was 163 to 165 °C.

Consider `Cn1cc2c(=O)n(Cc3ccccc3C#N)cnc2n1` [Compound 30, 5-(2-cyanobenzyl)-2-methyl-2,5-dihydropyrazolo[3,4-d]-pyrimidin-4-one], for which the melting point lay in the range of 198 to 199 °C.
